Patent publication US5095012A, “Antibiotic C-7 catechol-substituted cephalosporin compounds, compositions, and method of use thereof” (Bristol-Myers Squibb Company, priority 1990, dated 1992)
≈ marks a conversion by molar mass, not a printed value.

How the values were obtained:
[1] = tested on: Penicillin(PC)-sensitive S. aureus (5 strains); assay: MIC by two-fold serial agar dilution, group Gp-Ia; format: cell-based; settings: Staphylococcus aureus, Gp-Ia (5 strains), Mueller-Hinton agar, read-out: Geometric mean of MIC, Gp-Ia
Procedure: (§1) Minimum inhibitory concentrations (MICs) for the compounds in the above examples were determined against thirty two strains of test organisms by a two-fold serial agar dilution method in Mueller-Hinton agar. Geometric means of MICs were calculated against six groups of the test organisms which are classified as follows and summarized in Table 1.
Gp-Ia Penicillin(PC)-sensitive S. aureus (5 strains).

[2] = tested on: Penicillin(PC)-resistant S. aureus (5); assay: MIC by two-fold serial agar dilution, group Gp-Ib; format: cell-based; settings: Staphylococcus aureus, Gp-Ib (5), Mueller-Hinton agar, read-out: Geometric mean of MIC, Gp-Ib
Procedure: as §1
Gp-Ib Penicillin(PC)-resistant S. aureus (5).

[3] = tested on: Cephalothin(CET)-sensitive E. coli (2), Kl. pneumoniae (1) and Pr. mirabilis (2); assay: MIC by two-fold serial agar dilution, group Gn-Ia; format: cell-based; settings: Gn-Ia (5), Mueller-Hinton agar, read-out: Geometric mean of MIC, Gn-Ia
Procedure: as §1
Gn-Ia Cephalothin(CET)-sensitive E. coli (2), Kl.
pneumoniae (1) and Pr. mirabilis (2).

[4] = tested on: Cephalothin(CET)-resistant E. coli (3) and Kl. pneumoniae (2); assay: MIC by two-fold serial agar dilution, group Gn-Ib; format: cell-based; settings: Escherichia coli, read-out: Geometric mean of MIC, Gn-Ib
Procedure: as §1
Gn-Ib Cephalothin(CET)-resistant E. coli (3) and Kl.

[5] = tested on: M. morganii (1), Ent. cloacae (2) and Ser. marcescens (2); assay: MIC by two-fold serial agar dilution, group Gn-II; format: cell-based; settings: Gn-II (5), Mueller-Hinton agar, read-out: Geometric mean of MIC, Gn-II
Procedure: as §1
Gn-II M. morganii (1), Ent. cloacae (2) and Ser.

[6] = tested on: Ps. aeruginosa (7); assay: MIC by two-fold serial agar dilution, group Gn-III; format: cell-based; settings: Pseudomonas aeruginosa, Gn-III (7), Mueller-Hinton agar, read-out: Geometric mean of MIC, Gn-III
Procedure: as §1
Gn-III Ps. aeruginosa (7).

[7] = tested on: S. aureus Smith; assay: In vivo antibacterial activity in infected mice, S. aureus Smith; settings: Staphylococcus aureus, im, just after the bacterial challenge, read-out: PD50, S. aureus Smith
Procedure: (§2) In vivo antibacterial activity was determined against three bacterial infections (S. aureus Smith, E. coli Juhl and P. aeruginosa A98483A) by intramuscular administration to mice just after the bacterial challenge. PD50 values are summarized in Table 2 in comparison with the MIC values against the corresponding organisms.

[8] = tested on: S. aureus Smith; assay: MIC against S. aureus Smith; format: cell-based; settings: Staphylococcus aureus
Procedure: as §1, §2

[9] = tested on: E. coli Juhl; assay: In vivo antibacterial activity in infected mice, E. coli Juhl; settings: Escherichia coli, im, just after the bacterial challenge, read-out: PD50, E. coli Juhl
Procedure: as §2

[10] = tested on: E. coli Juhl; assay: MIC against E. coli Juhl; format: cell-based; settings: Escherichia coli
Procedure: as §1, §2

[11] = tested on: P. aeruginosa A9843A; assay: In vivo antibacterial activity in infected mice, P. aeruginosa A9843A; settings: Pseudomonas aeruginosa, im, read-out: PD50, P. aeruginosa A9843A
Procedure: as §2

[12] = tested on: P. aeruginosa A9843A; assay: MIC against P. aeruginosa A9843A; format: cell-based; settings: Pseudomonas aeruginosa, read-out: MIC, P. aeruginosa A9843A
Procedure: as §1, §2

| Compound | MIC [1] [µg/mL] | MIC [2] [µg/mL] | MIC [3] [µg/mL] | MIC [4] [µg/mL] | MIC [5] [µg/mL] | MIC [6] [µg/mL] | ED50 [7] [mg/kg] | MIC [8] [µg/mL] | ED50 [9] [mg/kg] | MIC [10] [µg/mL] | ED50 [11] [mg/kg] | MIC [12] [µg/mL] |
| --- | --- | --- | --- | --- | --- | --- | --- | --- | --- | --- | --- | --- |
| C/C=C\C1=C(C(=O)O)N2C(=O)C(NC(=O)/C(=N\OC(C(=O)O)c3ccc(O)c(O)c3)c3csc(N)n3)C2SC1 (stereo not drawn) [Ib] | 0.92 (≈ 1.6 µM) | 2.1 (≈ 3.65 µM) | 0.17 (≈ 0.295 µM) | 0.35 (≈ 0.608 µM) | 7.3 (≈ 12.7 µM) | 5.1 (≈ 8.86 µM) | 6.8 | 0.8 (≈ 1.39 µM) | 1.5 | 0.4 (≈ 0.695 µM) | 17 | 3.1 (≈ 5.39 µM) |
| C[N+]1(CC2=C(C(=O)[O-])N3C(=O)C(NC(=O)C(=NOC(C(=O)O)c4ccc(O)c(O)c4)c4csc(N)n4)C3SC2)CCCC1 (stereo not drawn) [Ia, 7-[(2-(2-Aminothiazol-4-yl)-2[(Z)-[carboxy(3,4-dihydroxyphenyl)methyl]oxyimino]acetamido]-3-(1-methylpyrrolidinio)methyl-3-cephem-4-carboxylate] | 1.4 (≈ 2.21 µM) | 3.1 (≈ 4.9 µM) | 0.3 (≈ 0.474 µM) | 0.4 (≈ 0.632 µM) | 0.8 (≈ 1.26 µM) | 1.6 (≈ 2.53 µM) | 5.6 | 1.6 (≈ 2.53 µM) | 0.14 | 0.2 (≈ 0.316 µM) | 6.3 | 1.6 (≈ 2.53 µM) |
| Nc1nc(/C(=N/OCc2cc(O)c(O)cc2C(=O)O)C(=O)NC2C(=O)N3C(C(=O)[O-])=C(/C=C/C[n+]4ccccc4)CSC23)cs1 (stereo not drawn) [Id] | 0.61 (≈ 0.935 µM) | 1.6 (≈ 2.45 µM) | 0.087 (≈ 0.133 µM) | 0.17 (≈ 0.26 µM) | 0.46 (≈ 0.705 µM) | 0.88 (≈ 1.35 µM) | 1 | 0.8 (≈ 1.23 µM) | 0.017 | 0.1 (≈ 0.153 µM) | 7.2 | 0.8 (≈ 1.23 µM) |
| Nc1nc(/C(=N/OC(C(=O)O)c2ccc(O)c(O)c2)C(=O)NC2C(=O)N3C(C(=O)[O-])=C(/C=C/C[n+]4ccccc4)CSC23)cs1 (stereo not drawn) [Ic] | 0.26 (≈ 0.398 µM) | 0.4 (≈ 0.613 µM) | 0.076 (≈ 0.116 µM) | 0.15 (≈ 0.23 µM) | 0.46 (≈ 0.705 µM) | 2.3 (≈ 3.52 µM) | 1.4 | 0.4 (≈ 0.613 µM) | 0.067 | 0.05 (≈ 0.0766 µM) | 12 | 3.1 (≈ 4.75 µM) |
| C[N+]1(CC2=C(C(=O)[O-])N3C(=O)C(NC(=O)/C(=N\OC(C(=O)O)c4ccc(O)c(O)c4)c4csc(N)n4)[C@H]3SC2)Cc2cc(O)c(O)cc2C1 (stereo partly drawn) [Ie, 7-[2-(2-Aminothiazol-4-yl)-2-[(Z)-[carboxy(3,4-dihydroxy-phenyl)methyl]oxyimino]acetamido]-3-(5,6-dihydroxy-2-methyl-2-isoindolinio)methyl-3-cephem-4-carboxylate] | 8.3 (≈ 11.6 µM) | 13 (≈ 18.2 µM) | 0.46 (≈ 0.645 µM) | 0.46 (≈ 0.645 µM) | 1.6 (≈ 2.24 µM) | 0.3 (≈ 0.421 µM) | 2.4 | 12.5 (≈ 17.5 µM) | 0.045 | 0.8 (≈ 1.12 µM) | 2.1 | 0.4 (≈ 0.561 µM) |
